Source: publication PMC6199744, “Development of Chemical Proteomics for the Folateome and Analysis of the Kinetoplastid Folateome” (ACS Infectious Diseases, 2018)
Like-named read-outs stand apart in the source and are kept apart here.

Key:
Assay type in all cases: binding
[1] = biological target: T1, HeLa cell extract proteins (Homo sapiens, UniProt P61619)
T1 construct: endogenous in cells; host or cells: HeLa cell extract

[2] = biological target: T2, HeLa cell extract proteins (Homo sapiens, UniProt Q01105)
T2 construct: endogenous in cells; host or cells: HeLa cell extract
T2 sequence (Q01105 whole entry): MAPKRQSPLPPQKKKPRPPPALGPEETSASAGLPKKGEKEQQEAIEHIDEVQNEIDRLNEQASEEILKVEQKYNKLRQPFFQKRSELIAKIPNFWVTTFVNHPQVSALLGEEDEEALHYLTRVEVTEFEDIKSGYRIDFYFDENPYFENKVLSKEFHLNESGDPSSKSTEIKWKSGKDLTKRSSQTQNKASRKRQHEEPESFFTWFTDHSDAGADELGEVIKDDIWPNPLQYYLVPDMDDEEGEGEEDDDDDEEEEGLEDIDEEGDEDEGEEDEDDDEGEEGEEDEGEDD

[3] = biological target: T3, HeLa cell extract proteins (Homo sapiens, UniProt P27797)
T3 construct: endogenous in cells; host or cells: HeLa cell extract
T3 sequence (P27797 18-417): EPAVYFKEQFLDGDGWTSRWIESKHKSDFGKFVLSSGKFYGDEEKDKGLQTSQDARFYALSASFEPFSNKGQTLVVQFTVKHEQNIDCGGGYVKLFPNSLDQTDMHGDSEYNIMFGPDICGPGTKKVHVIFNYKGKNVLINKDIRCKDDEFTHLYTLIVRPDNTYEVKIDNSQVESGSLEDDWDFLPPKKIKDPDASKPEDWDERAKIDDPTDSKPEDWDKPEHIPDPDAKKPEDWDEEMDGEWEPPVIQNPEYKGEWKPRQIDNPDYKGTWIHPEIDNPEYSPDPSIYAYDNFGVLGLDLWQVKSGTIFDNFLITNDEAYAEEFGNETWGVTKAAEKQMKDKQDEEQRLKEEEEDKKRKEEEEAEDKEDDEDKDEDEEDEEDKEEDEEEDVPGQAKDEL

[4] = biological target: T4, HeLa cell extract proteins (Homo sapiens, UniProt P18669)
T4 construct: endogenous in cells; host or cells: HeLa cell extract
T4 sequence (P18669 whole entry): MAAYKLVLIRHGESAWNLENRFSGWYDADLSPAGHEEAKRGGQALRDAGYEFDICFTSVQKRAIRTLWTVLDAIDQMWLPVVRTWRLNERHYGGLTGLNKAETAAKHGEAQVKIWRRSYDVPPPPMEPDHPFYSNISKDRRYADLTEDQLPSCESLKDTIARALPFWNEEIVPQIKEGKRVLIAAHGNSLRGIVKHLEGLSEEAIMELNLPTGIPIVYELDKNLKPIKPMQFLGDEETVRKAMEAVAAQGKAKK

[5] = biological target: T5, HeLa cell extract proteins (Homo sapiens, UniProt Q9UI30)
T5 construct: endogenous in cells; host or cells: HeLa cell extract
T5 sequence (Q9UI30 1-125): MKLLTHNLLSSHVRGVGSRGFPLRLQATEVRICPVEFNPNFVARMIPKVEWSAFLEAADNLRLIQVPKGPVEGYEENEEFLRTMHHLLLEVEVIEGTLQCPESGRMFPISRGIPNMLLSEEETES

[6] = biological target: T6, HeLa cell extract proteins (Homo sapiens, UniProt P62195)
T6 construct: endogenous in cells; host or cells: HeLa cell extract

[7] = biological target: T7, HeLa cell extract proteins (Homo sapiens, UniProt Q99714)
T7 construct: endogenous in cells; host or cells: HeLa cell extract
T7 sequence (Q99714 1-261): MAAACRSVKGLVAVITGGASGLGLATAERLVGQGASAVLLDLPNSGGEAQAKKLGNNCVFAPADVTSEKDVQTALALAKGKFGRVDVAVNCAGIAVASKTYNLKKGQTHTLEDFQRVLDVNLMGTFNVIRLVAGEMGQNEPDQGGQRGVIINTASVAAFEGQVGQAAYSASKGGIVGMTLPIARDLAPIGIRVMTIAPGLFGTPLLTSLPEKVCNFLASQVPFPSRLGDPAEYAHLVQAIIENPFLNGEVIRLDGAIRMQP

[8] = biological target: T8, HeLa cell extract proteins (Homo sapiens, UniProt P48643)
T8 construct: endogenous in cells; host or cells: HeLa cell extract
T8 sequence (P48643 whole entry): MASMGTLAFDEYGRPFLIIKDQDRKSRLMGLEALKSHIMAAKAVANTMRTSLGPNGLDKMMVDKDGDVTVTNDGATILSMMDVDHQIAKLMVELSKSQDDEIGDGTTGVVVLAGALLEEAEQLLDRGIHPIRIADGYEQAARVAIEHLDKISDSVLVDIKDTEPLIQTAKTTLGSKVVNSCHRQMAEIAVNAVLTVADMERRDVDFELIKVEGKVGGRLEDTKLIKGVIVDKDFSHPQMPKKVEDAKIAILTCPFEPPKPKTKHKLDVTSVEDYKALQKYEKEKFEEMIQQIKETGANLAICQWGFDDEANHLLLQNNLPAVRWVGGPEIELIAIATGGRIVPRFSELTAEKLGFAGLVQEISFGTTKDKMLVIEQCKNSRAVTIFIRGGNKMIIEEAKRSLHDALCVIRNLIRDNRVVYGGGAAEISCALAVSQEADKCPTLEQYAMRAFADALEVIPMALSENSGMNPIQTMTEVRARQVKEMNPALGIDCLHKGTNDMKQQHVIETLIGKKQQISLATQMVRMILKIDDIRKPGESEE

[9] = biological target: T9, HeLa cell extract proteins (Homo sapiens, UniProt Q99613)
T9 construct: endogenous in cells; host or cells: HeLa cell extract
T9 sequence (Q99613 whole entry): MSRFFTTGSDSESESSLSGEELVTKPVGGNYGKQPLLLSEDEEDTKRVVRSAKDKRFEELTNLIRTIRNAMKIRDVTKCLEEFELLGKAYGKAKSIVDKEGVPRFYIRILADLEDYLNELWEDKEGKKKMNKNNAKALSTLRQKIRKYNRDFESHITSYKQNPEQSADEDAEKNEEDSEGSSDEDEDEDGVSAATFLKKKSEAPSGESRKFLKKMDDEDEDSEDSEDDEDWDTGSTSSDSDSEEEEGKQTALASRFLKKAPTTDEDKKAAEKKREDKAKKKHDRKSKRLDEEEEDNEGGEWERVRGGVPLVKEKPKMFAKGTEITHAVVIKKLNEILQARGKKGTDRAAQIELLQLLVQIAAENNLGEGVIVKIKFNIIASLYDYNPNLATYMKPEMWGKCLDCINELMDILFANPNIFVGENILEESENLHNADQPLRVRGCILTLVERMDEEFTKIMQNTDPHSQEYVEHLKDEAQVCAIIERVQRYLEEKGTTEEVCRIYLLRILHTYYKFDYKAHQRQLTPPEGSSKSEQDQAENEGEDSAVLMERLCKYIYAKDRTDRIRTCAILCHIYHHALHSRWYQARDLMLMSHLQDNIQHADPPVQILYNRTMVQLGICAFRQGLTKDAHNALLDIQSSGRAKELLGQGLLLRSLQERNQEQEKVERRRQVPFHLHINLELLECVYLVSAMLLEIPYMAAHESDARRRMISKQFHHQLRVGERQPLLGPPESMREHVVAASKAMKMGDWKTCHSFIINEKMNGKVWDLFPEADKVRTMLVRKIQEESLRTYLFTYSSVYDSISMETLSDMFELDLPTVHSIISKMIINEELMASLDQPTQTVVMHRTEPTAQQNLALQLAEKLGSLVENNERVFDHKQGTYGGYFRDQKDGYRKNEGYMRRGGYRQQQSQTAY

[10] = biological target: T10, HeLa cell extract proteins (Homo sapiens, UniProt Q6ZN16)
T10 construct: endogenous in cells; host or cells: HeLa cell extract
T10 sequence (Q6ZN16 1-1313): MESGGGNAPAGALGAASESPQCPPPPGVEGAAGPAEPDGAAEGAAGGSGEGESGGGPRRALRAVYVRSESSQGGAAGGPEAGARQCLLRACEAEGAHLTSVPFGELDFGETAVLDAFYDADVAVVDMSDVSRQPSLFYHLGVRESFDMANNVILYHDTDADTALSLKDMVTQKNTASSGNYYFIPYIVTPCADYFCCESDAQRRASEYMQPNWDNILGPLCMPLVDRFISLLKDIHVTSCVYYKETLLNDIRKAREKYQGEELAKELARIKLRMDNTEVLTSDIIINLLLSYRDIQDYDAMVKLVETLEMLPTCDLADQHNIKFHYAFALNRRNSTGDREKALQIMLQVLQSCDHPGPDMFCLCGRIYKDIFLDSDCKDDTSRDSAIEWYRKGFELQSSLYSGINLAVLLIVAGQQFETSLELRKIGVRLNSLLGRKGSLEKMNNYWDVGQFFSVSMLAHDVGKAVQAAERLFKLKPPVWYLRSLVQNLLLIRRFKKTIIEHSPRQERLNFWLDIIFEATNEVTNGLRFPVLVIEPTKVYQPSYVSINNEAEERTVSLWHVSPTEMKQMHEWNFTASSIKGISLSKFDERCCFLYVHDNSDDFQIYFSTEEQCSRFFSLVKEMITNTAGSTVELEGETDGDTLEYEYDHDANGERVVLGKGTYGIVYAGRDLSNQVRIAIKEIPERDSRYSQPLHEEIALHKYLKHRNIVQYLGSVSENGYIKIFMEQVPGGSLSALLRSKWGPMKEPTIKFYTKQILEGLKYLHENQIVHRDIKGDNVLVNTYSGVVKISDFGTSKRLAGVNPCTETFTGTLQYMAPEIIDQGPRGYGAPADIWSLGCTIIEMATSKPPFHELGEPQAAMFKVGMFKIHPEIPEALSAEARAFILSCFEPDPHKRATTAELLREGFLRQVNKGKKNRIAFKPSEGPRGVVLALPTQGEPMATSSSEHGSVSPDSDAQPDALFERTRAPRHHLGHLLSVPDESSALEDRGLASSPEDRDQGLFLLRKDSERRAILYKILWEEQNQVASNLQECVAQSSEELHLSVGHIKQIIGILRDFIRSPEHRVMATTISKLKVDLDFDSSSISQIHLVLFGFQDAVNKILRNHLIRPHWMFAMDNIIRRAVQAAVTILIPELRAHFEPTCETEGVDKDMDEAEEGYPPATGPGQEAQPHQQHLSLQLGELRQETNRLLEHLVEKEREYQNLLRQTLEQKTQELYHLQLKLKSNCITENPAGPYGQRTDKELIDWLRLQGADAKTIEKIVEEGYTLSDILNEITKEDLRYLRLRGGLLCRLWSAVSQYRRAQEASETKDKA

[11] = biological target: T11, HeLa cell extract proteins (Homo sapiens, UniProt O75947)
T11 construct: endogenous in cells; host or cells: HeLa cell extract
T11 sequence (O75947 whole entry): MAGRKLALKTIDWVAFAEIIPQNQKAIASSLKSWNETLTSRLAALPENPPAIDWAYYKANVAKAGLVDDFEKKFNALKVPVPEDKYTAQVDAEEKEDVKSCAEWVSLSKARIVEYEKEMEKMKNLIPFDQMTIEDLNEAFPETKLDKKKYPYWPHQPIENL

[12] = biological target: T12, HeLa cell extract proteins (Homo sapiens, UniProt P12270)
T12 construct: endogenous in cells; host or cells: HeLa cell extract
T12 sequence (P12270 whole entry): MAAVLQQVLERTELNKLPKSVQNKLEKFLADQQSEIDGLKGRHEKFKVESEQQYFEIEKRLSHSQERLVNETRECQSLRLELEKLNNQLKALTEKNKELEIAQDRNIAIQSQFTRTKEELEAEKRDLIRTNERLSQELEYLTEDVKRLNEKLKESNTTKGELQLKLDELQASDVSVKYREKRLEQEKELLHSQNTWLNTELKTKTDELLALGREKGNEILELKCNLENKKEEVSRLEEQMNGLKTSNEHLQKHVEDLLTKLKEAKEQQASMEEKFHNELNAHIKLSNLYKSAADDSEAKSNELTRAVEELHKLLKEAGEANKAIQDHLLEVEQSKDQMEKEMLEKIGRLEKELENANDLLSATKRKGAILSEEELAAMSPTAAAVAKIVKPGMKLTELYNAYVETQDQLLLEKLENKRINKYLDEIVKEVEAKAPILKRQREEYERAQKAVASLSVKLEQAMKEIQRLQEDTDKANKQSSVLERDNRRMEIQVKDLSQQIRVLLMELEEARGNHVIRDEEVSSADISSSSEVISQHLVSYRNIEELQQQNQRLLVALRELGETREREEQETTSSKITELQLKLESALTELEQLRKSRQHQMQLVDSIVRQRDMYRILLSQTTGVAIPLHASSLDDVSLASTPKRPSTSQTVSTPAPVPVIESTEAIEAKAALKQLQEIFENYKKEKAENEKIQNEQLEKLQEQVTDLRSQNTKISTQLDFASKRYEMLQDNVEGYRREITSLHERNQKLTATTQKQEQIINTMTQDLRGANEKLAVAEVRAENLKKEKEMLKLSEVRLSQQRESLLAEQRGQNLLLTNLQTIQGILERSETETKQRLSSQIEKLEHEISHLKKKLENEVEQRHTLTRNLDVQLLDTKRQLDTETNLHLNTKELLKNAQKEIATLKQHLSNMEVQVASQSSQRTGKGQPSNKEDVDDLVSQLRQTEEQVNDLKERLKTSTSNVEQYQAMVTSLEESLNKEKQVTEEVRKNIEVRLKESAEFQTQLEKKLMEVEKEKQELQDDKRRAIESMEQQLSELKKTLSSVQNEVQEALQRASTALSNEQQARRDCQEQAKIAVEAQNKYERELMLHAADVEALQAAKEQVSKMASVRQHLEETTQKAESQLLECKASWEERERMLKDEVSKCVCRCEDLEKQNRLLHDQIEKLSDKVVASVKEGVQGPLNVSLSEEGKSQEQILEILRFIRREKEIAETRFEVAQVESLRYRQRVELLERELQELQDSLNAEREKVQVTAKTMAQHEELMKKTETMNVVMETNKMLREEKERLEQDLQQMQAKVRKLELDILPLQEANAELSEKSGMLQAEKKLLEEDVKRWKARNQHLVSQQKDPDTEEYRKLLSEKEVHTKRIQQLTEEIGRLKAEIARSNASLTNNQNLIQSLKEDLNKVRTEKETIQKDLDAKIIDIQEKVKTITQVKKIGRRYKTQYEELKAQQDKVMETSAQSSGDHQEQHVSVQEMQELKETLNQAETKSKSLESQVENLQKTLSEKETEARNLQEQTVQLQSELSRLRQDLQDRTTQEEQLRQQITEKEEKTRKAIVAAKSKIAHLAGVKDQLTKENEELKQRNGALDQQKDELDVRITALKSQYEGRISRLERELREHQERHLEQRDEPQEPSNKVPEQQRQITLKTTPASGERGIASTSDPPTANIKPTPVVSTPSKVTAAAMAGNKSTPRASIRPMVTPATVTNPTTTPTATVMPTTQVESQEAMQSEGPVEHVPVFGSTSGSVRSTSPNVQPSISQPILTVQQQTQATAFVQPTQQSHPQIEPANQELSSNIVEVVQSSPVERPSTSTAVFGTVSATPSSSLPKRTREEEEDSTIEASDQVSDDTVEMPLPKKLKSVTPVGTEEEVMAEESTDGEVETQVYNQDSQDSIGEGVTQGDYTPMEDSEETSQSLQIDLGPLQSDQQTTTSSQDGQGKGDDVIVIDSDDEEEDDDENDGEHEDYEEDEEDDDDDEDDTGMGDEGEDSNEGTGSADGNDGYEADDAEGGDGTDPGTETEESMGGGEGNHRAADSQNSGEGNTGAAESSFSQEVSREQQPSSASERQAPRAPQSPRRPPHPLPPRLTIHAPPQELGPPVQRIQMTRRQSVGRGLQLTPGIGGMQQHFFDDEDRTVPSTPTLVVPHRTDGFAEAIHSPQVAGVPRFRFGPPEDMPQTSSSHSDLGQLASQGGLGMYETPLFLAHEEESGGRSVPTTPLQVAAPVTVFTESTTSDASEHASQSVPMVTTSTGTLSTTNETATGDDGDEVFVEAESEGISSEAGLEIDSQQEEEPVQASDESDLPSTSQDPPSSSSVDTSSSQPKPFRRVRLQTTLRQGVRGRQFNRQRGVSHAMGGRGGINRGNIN

[13] = HeLa, protein SET (ISOFORM 1 OF PROTEIN SET.)
[14] = HeLa, protein PGAM1 (SIMILAR TO PHOSPHOGLYCERATE MUTASE 1 ISOFORM 1.)
[15] = HeLa, protein CCT5 (T-COMPLEX PROTEIN 1 SUBUNIT EPSILON.)

T1 sequence (P61619 whole entry): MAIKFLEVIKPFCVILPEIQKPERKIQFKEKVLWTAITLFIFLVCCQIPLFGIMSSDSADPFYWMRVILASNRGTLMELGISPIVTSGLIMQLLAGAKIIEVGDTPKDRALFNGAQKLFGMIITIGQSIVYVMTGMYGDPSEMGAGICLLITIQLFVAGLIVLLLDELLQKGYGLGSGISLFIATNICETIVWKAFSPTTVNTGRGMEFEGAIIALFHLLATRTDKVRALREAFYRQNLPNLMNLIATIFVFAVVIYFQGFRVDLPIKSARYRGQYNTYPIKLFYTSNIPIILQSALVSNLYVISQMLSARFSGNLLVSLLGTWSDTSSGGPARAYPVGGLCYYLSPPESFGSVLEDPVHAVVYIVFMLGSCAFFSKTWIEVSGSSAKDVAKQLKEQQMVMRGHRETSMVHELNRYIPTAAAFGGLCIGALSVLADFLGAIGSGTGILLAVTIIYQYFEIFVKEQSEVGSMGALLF

Compound	fold changes relative to vehicle control ([1]; HeLa, protein SEC61A1)	fold changes relative to vehicle control ([5]; HeLa, protein HSPC152)	fold changes relative to vehicle control ([9]; protein EIF3C, HeLa)	fold changes relative to vehicle control [2, 13] [fold]	fold changes relative to vehicle control ([3]; HeLa, protein CALR (CA[…].)) [fold]	fold changes relative to vehicle control [4, 14] [fold]	fold changes relative to vehicle control ([6]; protein PSMC5, HeLa)	fold changes relative to vehicle control ([7]; protein HSD17B10, HeLa)	fold changes relative to vehicle control [8, 15] [fold]	fold changes relative to vehicle control ([10]; captured protein MAP3K15, HeLa)	fold changes relative to vehicle control ([11]; protein ATP5H, HeLa)	fold changes relative to vehicle control ([12]; protein TPR, HeLa)	also measured
Nc1nc2c(c(=O)[nH]1)N(C=O)C(CNc1ccc(C(=O)N[C@@H](CCC(=O)O)C(=O)O)cc1)CN2 (stereo partly drawn) [LEU, leucovorin]	0.99	1.17	1.02										fold changes relative to vehicle control ([2]; HeLa, captured protein SET): 0.98; fold changes relative to vehicle control ([3]; HeLa, protein CALR): 1.15; fold changes relative to vehicle control ([4]; HeLa, protein PGAM1): 1.05; fold changes relative to vehicle control ([6]; HeLa, protein PSMC5): 1.02; fold changes relative to vehicle control ([7]; HeLa, protein HSD17B10): 0.93; fold changes relative to vehicle control ([8]; HeLa, protein CCT5): 1.05; fold changes relative to vehicle control ([10]; HeLa, protein MAP3K15): 1; fold changes relative to vehicle control ([11]; HeLa, captured protein ATP5H): 0.91; fold changes relative to vehicle control ([12]; HeLa, captured protein TPR): 1.35
Nc1nc2[nH]cc(CCc3ccc(C(=O)N[C@@H](CCC(=O)O)C(=O)O)cc3)c2c(=O)[nH]1 [PTX, pemetrexed]													fold changes relative to vehicle control [1]: 0.98; fold changes relative to vehicle control [2]: 1.08; fold changes relative to vehicle control [3]: 1.22; fold changes relative to vehicle control [4]: 1.24; fold changes relative to vehicle control [5]: 1.21; fold changes relative to vehicle control [6]: 1.03; fold changes relative to vehicle control [7]: 0.9; fold changes relative to vehicle control [8]: 1.13; fold changes relative to vehicle control [9]: 0.94; fold changes relative to vehicle control [10]: 1.07; fold changes relative to vehicle control [11]: 1.03; fold changes relative to vehicle control [12]: 1.21
CCCCCCOc1ccc(Cc2cnc(N)nc2N)cc1 [compound 1]	1.02	0.96	1.1	2.11	1.46	1.5	1.07	0.91	1.41	1.03	1.11	1.19	
CCCCCCOc1cccc(Cc2cnc(N)nc2N)c1 [compound 2]	1.01	1.18	1.19	3.28		2.64	1.36	1.31	1.97	1.02	0.88	1.44	fold changes relative to vehicle control ([3]; HeLa, protein CALR (CALRETICULIN PRECURSOR.)): 3.14 fold
Nc1nc2cccc(-c3ccccc3)c2n1Cc1ccc(Cl)c(Cl)c1 [compound 3]	1	1.04	1.08	0.9	0.77		1.05	0.93	1.18	1.01	0.94	1.2	fold changes relative to vehicle control ([4]; HeLa, protein PGAM1 (SIMILAR TO PHOSPH[…] 1 ISOFORM 1.)): 0.9 fold
